Assay results taken from patent publication US8039483B2, “Quinuclidine carbonate salts and medicinal composition thereof” (Chiesi Farmaceutici S.p.A., priority 2008, dated 2011).

What was measured:
[1] = Plasma stability in human plasma; type: in vitro ADME; conditions: 37° C.
Description: (§1) Briefly 10 μl of a stock solution 250 μM of compound 1 in acetonitrile were added to 1 ml of rat and human plasma, and samples were incubated at 37° C. Plasma (50 μL) was taken after 0, 1 and 5 hours of incubation and added to 140 μl of acetonitrile with addition of verapamil as internal standard (250 ng/ml). Samples were analysed by HPLC-MS/MS analysis.
(§2) Plasma stability was calculated as percentage remaining after 1 and 5 hours by dividing the peak area at 1 or 5 hours by the area of the peak at time 0. […] The other compounds of the invention behave similarly.

[2] = Plasma stability in rat plasma; type: in vitro ADME; conditions: 37° C.
Description: as §1, §2

Measured: plasma stability, percentage remaining

O=C(OC(c1cccc(F)c1)c1cccc(F)c1)O[C@H]1C[N+]2(CC(=O)c3cccs3)CCC1CC2.[Cl-] [Compound 1, (R)-3-[Bis-(3-fluoro-phenyl)-methoxycarbonyloxy]-1-(2-oxo-2-thiophen-2-yl-ethyl)-1-azonia-bicyclo[2.2.2]octane; chloride]
less than 2%: [1]; after 1 hour of incubation | [1]; after 5 hours of incubation | [2]; after 1 hour of incubation | [2]; after 5 hours of incubation
